Patent US11286231B2, “Hydrogen-bonding compounds, compositions comprising the same, and methods of preparing and using the same” (Wake Forest University Health Sciences, priority 2016, dated 2022)

Tests used:
[1] = Rheometer tensile strength T′ (adhesive force) test of HyStem hydrogels; format: physicochemical; conditions: for increase in T′ when concentration is doubled: 0.25% to 0.50% to 1.0% w/v; for fold increase in tensile strength T′: 1.0% w/v solution; for tensile strength T′: n=3
Description: To a 2 mL centrifuge tube, 200 μL of Heprasil® solution (1% w/v solution, thiolated HA component of HyStem kit), 200 μL of Gelin-S® solution (1% w/v, thiolated gelatin component of HyStem kit), 50 μL of Extralink® solution (2% w/v, polyethylene glycol diacrylate component of HyStem kit), and 50 μL of a modular catecholamine (C1.1) or amide […] solutions (0.25%-1.5% w/v, see Rheology section for specifics) were added and mixed by softly pipetting the solution up and down carefully to avoid creating bubbles. For control experiments the modular catecholamide or amine solutions were replaced with an equivalent volume of sterile deionized water. For rheology or cell culture studies, the reaction mixture was placed into wells of an appropriate size and exposed to UV radiation (˜222 nm) for 1-5 seconds.
A Discovery HR-2 Rheometer (TA Instruments) with an 8 mm geometry was used to collect the tensile strength, T′, data. The test was designed to quantify the axial force (Pa) exerted by the hydrogel on the geometry as measured by the rheometer as the geometry is slowly raised over 2000 μm at 25° C. The absolute value of the axial force (Pa) was then taken to be the adhesive force or tensile strength T′ (Pa) assigned to the hydrogel. To ensure standard conditions across all experiments the geometry was lowered into the gels until a calibration force of 0.4N was observed. Following, a rheometer tensile strength test was applied to the hydrogels at each of the respective conditions containing varying concentrations (0% w/v, 0.25% w/v, 0.50% w/v, and 1.0% w/v) of modular amine compounds, C1.0-C1.2. This experiment was repeated in triplicate for each condition.
While not wishing to be bound to any particular theory, our assumption here is that increased intermolecular interactions are occurring with the C1.2. In addition to the ortho-dihydroxyl groups offered by the catechol moiety, the amide moiety offers an extra hydrogen […] species, the carbonyl oxygen (C═O), for intermolecular interactions between the adjacent catecholamides. The catecholamides located on different HA chains or gelatin increase the ability for the hydrogel matrix to both interact with itself and other substrates through hydrogen bonding. Whereas the amine (C1.1) has a secondary carbon in the same position as the carbonyl functional group on the amide (C1.2), we postulate that the lack of this hydrogen bonding position yields a lower increase in G′ observed in hydrogel when comparing the two compounds. Again, to ensure standard conditions across all experiments, the geometry was lowered into the gels until a calibration force of 0.4N was detected. Following, a tensile strength test (25 μm/s, […], 25° C.) was applied to hydrogels containing varying concentrations (0%, 0.25%, […], and 1.0% w/v) of modular amine solutions, C1.1/C1.2. The reported values are the average T′ (Pa) values for n=3 runs at every condition and uncertainties were calculated from standard deviations between n=3 averaged T′ (Pa) for each condition. In FIG. 4, we report the following T′ (Pa) values for hydrogels containing C1.1: (1.10×10^2+/−2.91×10^1) Pa for Hystem® control, (2.90×10^2+/−1.23×10^2) Pa for Hystem®+0.25% w/v catecholamine, (4.25×10^2+/−1.01×10^2) Pa for Hystem® +0.50% w/v catecholamine, and (8.48×10^2+/−1.42×10^2) Pa for Hystem®+1.0% w/v catecholamine. […] In addition, we collected the following T′ values (Pa) for hydrogels containing C1.2: (1.09×10^2+3.64×10^1) Pa for Hystem® control, (3.33×10^2+/−6.16×10^1) Pa for Hystem®+0.25% w/v catecholamide, (4.12×10^2+/−6.39×10^1) Pa for Hystem®+0.50% w/v catecholamide, and (1.16×10^3+/−6.34×10^1) Pa for Hystem®+1.0% w/v catecholamide. […] Conclusively, we can say the increase in allotted tensile strength T′ (Pa) of the hydrogels when cross comparing compounds, C1.1 and C1.2, is due to the amide moiety having higher hydrogen bonding capacities.

Caco-2 = test: 3D Live/Dead assay with red vs green pixel analysis; format: cell-based; conditions: Caco-2, 3D, days 1, 4, 7; 1% w/v compound solution
Description: (§1) 3.0×10^6 HepG2 and Caco-2 cells were harvested from the tissue culture dishes, respectively. Following, they were centrifuged into cell pellets and the supernatant was discarded. For each cell line, HepG2 and Caco2, three conditions were prepared, i.e., a positive control (HyStem®) and two experimental conditions (HyStem®+C1.1 and HyStem®+C1.2). To prepare each condition, a 3.0×10^6 cell pellet was suspended in 500 μL 1% w/v Heprasil®, 500 μL 1% w/v Gelatin-S®, 125 μL of 2% w/v Extralink®, and 125 μL of 1% w/v C1.1/C1.2 (experimental conditions) or 125 μL of sterile, deionized water (positive control). The final cell density for each condition was […]. One 50 μL sample of each hydrogel condition at each condition was aliquoted into a 96-well for each time point (1, 4, and 7 days). […] At each time point media was aspirated from the wells and were subsequently incubated for 45-60 min with 200 μL of DPBS containing […] of calcein AM and […] of ethidium homodimer. Live cells fluoresce green due to the uptake and hydrolysis of calcein AM, and the nuclei of dead cells are labelled by the red-fluorescent ethidium homodimer.
(§2) A MATLAB (MathWorks®) script (supplemental information, S.3) was used to quantify red and green fluorescent signals generated by biochemical interactions between the ethidium homodimer and calcein AM, and cells, respectively.
(§3) Quantification of the red (dead) and green (viable) pixels was performed using an image processing script written on MATLAB (S.3). In this case, the live cell staining corresponds with the cytoplasm of the cell while the dead stain only highlights the nuclei of the cell therefore we use the ratio of red to green pixels as a quantification to show the relative cell-viability rather than report individual Live/Dead cell quantification over time.

HepG2 = test: as above; format: cell-based; conditions: HepG2, 3D, days 1, 4, 7; 1% w/v compound solution
Description: as §1, §2, §3

[2] = Hystem + 0.25% w/v compound solution
[3] = Hystem + 0.50% w/v compound solution
[4] = Hystem + 1.0% w/v compound solution

| SMILES | increase in T′ when concentration is doubled [1] [%] | fold increase in tensile strength T′ [1] | tensile strength T′ [1, 2] | increase in T′, 0.50% w/v to 1.0% w/v ([1]; Hystem + 0.50% w/v compared to Hystem + 1.0% w/v) | tensile strength T′ [1, 3] | tensile strength T′ [1, 4] | biocompatibility / cell viability in hydrogel (Live/Dead) (Caco-2) | biocompatibility / cell viability in hydrogel (Live/Dead) (HepG2) |
| --- | --- | --- | --- | --- | --- | --- | --- | --- |
| C#CCNCc1ccc(O)c(O)c1 [Compound C1.1] | ~100 | approximately 4 fold | 2.90×10^2+/−1.23×10^2 Pa | 4.13×10^2+/−1.56×10^1 Pa | 4.25×10^2+/−1.01×10^2 Pa | 8.48×10^2+/−1.42×10^2 Pa | only a slightly depressed biocompatibility | only a slightly depressed biocompatibility |
| C#CCNC(=O)Cc1ccc(O)c(O)c1 [Compound C1.2] | 200 | ~6 fold | 3.33×10^2+/−6.16×10^1 Pa |  | 4.12×10^2+/−6.39×10^1 Pa | 1.16×10^3+/−6.34×10^1 Pa | only a slightly depressed biocompatibility | only a slightly depressed biocompatibility |
